Experimental data as given in patent US20100311714A1, “1H-IMIDAZO[4,5-c]QUINOLINONE COMPOUNDS” (priority 2009, published 2010).
Where two headings read alike, the source gives them in different places.

Molecular target: T1, PI3K beta (Homo sapiens, UniProt P42338)
T1 construct: for the full-length p110-b subunit are generated and fused by overlapping PCR; His tag (C); made in house; host or cells: baculovirus BV949; Tn5 (Trichoplusia ni) or TiniPro insect cells
Assay: PI3K beta kinase assay (Kinase-Glo luminescence)
Type: biochemical
How it was run: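 Kinase-Glo luminescence read out ATP left after a 60-min room-temperature reaction, started with ATP (1 μM final) on 25 nM His-tagged p85 iSH2–p110β (BV949) plus 10 μg/mL PI substrate in pH 7.5 Tris buffer. Percent inhibition at eight concentrations was fitted to a four-parameter logistic model for IC50.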

T1 sequence (P42338 with tags, fused parts or gaps limits assumed): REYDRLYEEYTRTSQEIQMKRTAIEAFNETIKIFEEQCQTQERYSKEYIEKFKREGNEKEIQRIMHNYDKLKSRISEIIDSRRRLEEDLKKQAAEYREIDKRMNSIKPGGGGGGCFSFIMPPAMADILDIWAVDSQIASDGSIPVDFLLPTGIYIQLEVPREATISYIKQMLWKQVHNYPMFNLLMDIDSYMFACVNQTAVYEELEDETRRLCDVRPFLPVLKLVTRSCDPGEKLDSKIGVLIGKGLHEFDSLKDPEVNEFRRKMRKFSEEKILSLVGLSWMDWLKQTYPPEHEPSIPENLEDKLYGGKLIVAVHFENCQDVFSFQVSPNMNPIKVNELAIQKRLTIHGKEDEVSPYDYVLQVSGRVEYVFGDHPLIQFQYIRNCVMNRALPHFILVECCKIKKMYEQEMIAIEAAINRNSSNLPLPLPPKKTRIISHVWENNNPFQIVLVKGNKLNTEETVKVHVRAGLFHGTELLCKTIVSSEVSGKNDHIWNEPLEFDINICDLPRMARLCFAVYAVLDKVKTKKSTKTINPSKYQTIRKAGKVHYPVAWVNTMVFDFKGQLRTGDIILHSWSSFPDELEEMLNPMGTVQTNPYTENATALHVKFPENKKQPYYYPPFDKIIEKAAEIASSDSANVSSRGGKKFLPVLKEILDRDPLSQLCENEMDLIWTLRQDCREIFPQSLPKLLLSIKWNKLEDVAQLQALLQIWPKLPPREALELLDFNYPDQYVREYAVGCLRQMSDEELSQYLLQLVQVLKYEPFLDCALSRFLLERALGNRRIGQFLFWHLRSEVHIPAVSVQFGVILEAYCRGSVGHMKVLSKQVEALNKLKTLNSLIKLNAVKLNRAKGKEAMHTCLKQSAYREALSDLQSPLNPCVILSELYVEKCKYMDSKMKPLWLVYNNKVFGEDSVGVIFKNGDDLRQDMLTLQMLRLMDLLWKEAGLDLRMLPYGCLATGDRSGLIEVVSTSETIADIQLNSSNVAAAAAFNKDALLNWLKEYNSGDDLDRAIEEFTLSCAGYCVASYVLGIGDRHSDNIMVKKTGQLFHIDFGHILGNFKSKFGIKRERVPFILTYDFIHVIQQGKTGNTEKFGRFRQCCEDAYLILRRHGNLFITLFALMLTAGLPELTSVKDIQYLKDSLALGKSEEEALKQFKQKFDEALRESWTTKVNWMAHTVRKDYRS

Structure (SMILES) | IC50 (read-out: EPK_PI3Kbeta/IC50) [nM] | IC50 (read-out: PI3Kbeta/IC50) [nM]
CCNc1cc(-c2ccc3ncc4c(c3c2)n(-c2ccc(N(C)CC)nc2C)c(=O)n4C)cnc1C [Example 12.2, 8-(5-Ethylamino-6-methyl-pyridin-3-yl)-1-[6-(ethyl-methyl-amino)-2-methyl-pyridin-3-yl]-3-methyl-1,3-dihydro-imidazo[4,5-c]quinolin-2-one] | 49 | –
Cc1ccc(-n2c(=O)n(C)c3cnc4ccc(-c5cncc(NC(C)C)c5)cc4c32)c(C)n1 [Example 14.8, 1-(2,6-Dimethyl-pyridin-3-yl)-8-(5-isopropylamino-pyridin-3-yl)-3-methyl-1,3-dihydro-imidazo[4,5-c]quinolin-2-one] | 53 | –
CCNc1cc(-c2ccc3ncc4c(c3c2)n(-c2ccc(N3CC(F)(F)C3)nc2C)c(=O)n4C)cnc1CO [Example 24.3, 1-[6-(3,3-Difluoro-azetidin-1-yl)-2-methyl-pyridin-3-yl]-8-(5-ethylamino-6-hydroxymethyl-pyridin-3-yl)-3-methyl-1,3-dihydro-imidazo[4,5-c]quinolin-2-one] | 27 | –
COc1cc(-c2ccc3ncc4c(c3c2)n(-c2ccc(N(C)C)nc2C)c(=O)n4C)cnc1CO [Example 19.4, 1-(6-Dimethylamino-2-methyl-pyridin-3-yl)-8-(6-hydroxymethyl-5-methoxy-pyridin-3-yl)-3-methyl-1,3-dihydro-imidazo[4,5-c]quinolin-2-one] | < 3 | –
Cc1ncccc1-n1c(=O)n(C)c2cnc3ccc(-c4cnc5c(ccn5C)c4)cc3c21 [Example 2.14, 3-Methyl-1-(2-methyl-pyridin-3-yl)-8-(1-methyl-1H-pyrrolo[2,3-b]pyridin-5-yl)-1,3-dihydro-imidazo[4,5-c]quinolin-2-one] | – | 315
COCCOc1ccc(-n2c(=O)n(C)c3cnc4ccc(-c5cnc(COC)c(OC)c5)cc4c32)c(C)n1 [Example 22.3, 1-[6-(2-Methoxy-ethoxy)-2-methyl-pyridin-3-yl]-8-(5-methoxy-6-methoxymethyl-pyridin-3-yl)-3-methyl-1,3-dihydro-imidazo[4,5-c]quinolin-2-one] | 122 | –
CCOc1ccc(-c2ccc3ncc4c(c3c2)n(-c2ccc(NC(=O)COC)nc2C)c(=O)n4C)cn1 [Example 20.2, N-{5-[8-(6-Ethoxy-pyridin-3-yl)-3-methyl-2-oxo-2,3-dihydro-imidazo[4,5-c]quinolin-1-yl]-6-methyl-pyridin-2-yl}-2-methoxy-acetamide] | 891 | –
CCNc1cc(-c2ccc3ncc4c(c3c2)n(-c2ccc(N(C)CCOC)nc2C)c(=O)n4C)cnc1C [Example 15.6, 8-(5-Ethylamino-6-methyl-pyridin-3-yl)-1-{6-[(2-methoxy-ethyl)-methyl-amino]-2-methyl-pyridin-3-yl}-3-methyl-1,3-dihydro-imidazo[4,5-c]quinolin-2-one] | 28 | –
COc1nc(N2CCNCC2)ccc1-n1c(=O)n(C)c2cnc3ccc(-c4cnc(N(C)C)nc4)cc3c21 [Example 9.4, 8-(2-Dimethylamino-pyrimidin-5-yl)-1-(2-methoxy-6-piperazin-1-yl-pyridin-3-yl)-3-methyl-1,3-dihydro-imidazo[4,5-c]quinolin-2-one] | 142 | –
Cc1nc(F)ccc1-n1c(=O)n(C)c2cnc3ccc(-c4cncc(N)c4)cc3c21 [Example 7.16, 8-(5-Amino-pyridin-3-yl)-1-(6-fluoro-2-methyl-pyridin-3-yl)-3-methyl-1,3-dihydro-imidazo[4,5-c]quinolin-2-one] | 236 | –
COc1ccc(-n2c(=O)n(C)c3cnc4ccc(-c5cnc(N)c(C(F)(F)F)c5)cc4c32)c(OC)n1 [Example 8.1, 8-(6-Amino-5-trifluoromethyl-pyridin-3-yl)-1-(2,6-dimethoxy-pyridin-3-yl)-3-methyl-1,3-dihydro-imidazo[4,5-c]quinolin-2-one] | – | 23
CCNc1cc(-c2ccc3ncc4c(c3c2)n(-c2ccc(F)nc2C)c(=O)n4C)cnc1CO [Example 7.9, 8-(5-Ethylamino-6-hydroxymethyl-pyridin-3-yl)-1-(6-fluoro-2-methyl-pyridin-3-yl)-3-methyl-1,3-dihydro-imidazo[4,5-c]quinolin-2-one] | 69 | –
CNc1ccc(-c2ccc3ncc4c(c3c2)n(-c2ccc(N(C)CCOC)nc2C)c(=O)n4C)cn1 [Example 15.4, 1-{6-[(2-Methoxy-ethyl)-methyl-amino]-2-methyl-pyridin-3-yl}-3-methyl-8-(6-methylamino-pyridin-3-yl)-1,3-dihydro-imidazo[4,5-c]quinolin-2-one] | 407 | –
COCCN(C)c1ccc(-n2c(=O)n(C)c3cnc4ccc(-c5cnc(CO)c(OC)c5)cc4c32)c(C)n1 [Example 15.9, 8-(6-Hydroxymethyl-5-methoxy-pyridin-3-yl)-1-{6-[(2-methoxy-ethyl)-methyl-amino]-2-methyl-pyridin-3-yl}-3-methyl-1,3-dihydro-imidazo[4,5-c]quinolin-2-one] | 15 | –
COCCN(C)c1ccc(-n2c(=O)n(C)c3cnc4ccc(-c5cncc(N)c5)cc4c32)c(C)n1 [Example 15.8, 8-(5-Amino-pyridin-3-yl)-1-{6-[(2-methoxy-ethyl)-methyl-amino]-2-methyl-pyridin-3-yl}-3-methyl-1,3-dihydro-imidazo[4,5-c]quinolin-2-one] | 98 | –
CCNc1cc(-c2ccc3ncc4c(c3c2)n(-c2ccc(OC)nc2Cl)c(=O)n4C)cnc1C [Example 18.1, 1-(2-Chloro-6-methoxy-pyridin-3-yl)-8-(5-ethylamino-6-methyl-pyridin-3-yl)-3-methyl-1,3-dihydro-imidazo[4,5-c]quinolin-2-one] | 41 | –
CNc1cc(-c2ccc3ncc4c(c3c2)n(-c2ccc(F)nc2C)c(=O)n4C)cnc1CO [Example 7.11, 1-(6-Fluoro-2-methyl-pyridin-3-yl)-8-(6-hydroxymethyl-5-methylamino-pyridin-3-yl)-3-methyl-1,3-dihydro-imidazo[4,5-c]quinolin-2-one] | 41 | –
COCCN(C)c1ccc(-n2c(=O)n(C)c3cnc4ccc(-c5cnc(N(C)C)nc5)cc4c32)c(C)n1 [Example 15.5, 8-(2-Dimethylamino-pyrimidin-5-yl)-1-{6-[(2-methoxy-ethyl)-methyl-amino]-2-methyl-pyridin-3-yl}-3-methyl-1,3-dihydro-imidazo[4,5-c]quinolin-2-one] | 448 | –
CNC(=O)c1cc(-c2ccc3ncc4c(c3c2)n(-c2ccc(F)nc2C)c(=O)n4C)cnc1N [Example 7.14, 2-Amino-5-[1-(6-fluoro-2-methyl-pyridin-3-yl)-3-methyl-2-oxo-2,3-dihydro-1H-imidazo[4,5-c]quinolin-8-yl]-N-methyl-nicotinamide] | 14 | –
CCOc1ccc(-c2ccc3ncc4c(c3c2)n(-c2ccc(C)nc2C)c(=O)n4C)cn1 [Example 14.2, 1-(2,6-Dimethyl-pyridin-3-yl)-8-(6-ethoxy-pyridin-3-yl)-3-methyl-1,3-dihydro-imidazo[4,5-c]quinolin-2-one] | 358 | –
CNc1ccc(-c2ccc3ncc4c(c3c2)n(-c2ccc(NC(=O)COC)nc2C)c(=O)n4C)cn1 [Example 20.4, 2-Methoxy-N-{6-methyl-5-[3-methyl-8-(6-methylamino-pyridin-3-yl)-2-oxo-2,3-dihydro-imidazo[4,5-c]quinolin-1-yl]-pyridin-2-yl}-acetamide] | 592 | –
COCCN(C)c1ccc(-n2c(=O)n(C)c3cnc4ccc(-c5cnc(N)c(C(F)(F)F)c5)cc4c32)c(C)n1 [Example 15.1, 8-(6-Amino-5-trifluoromethyl-pyridin-3-yl)-1-{6-[(2-methoxy-ethyl)-methyl-amino]-2-methyl-pyridin-3-yl}-3-methyl-1,3-dihydro-imidazo[4,5-c]quinolin-2-one] | 15 | –
Cc1ccc(-n2c(=O)n(C)c3cnc4ccc(-c5cnc(N)c(C(F)(F)F)c5)cc4c32)c(C)n1 [Example 14.5, 8-(6-Amino-5-trifluoromethyl-pyridin-3-yl)-1-(2,6-dimethyl-pyridin-3-yl)-3-methyl-1,3-dihydro-imidazo[4,5-c]quinolin-2-one] | 9 | –
CCOc1ccc(-c2ccc3ncc4c(c3c2)n(-c2ccc(OCCOC)nc2C)c(=O)n4C)cn1 [Example 13.1, 8-(6-Ethoxy-pyridin-3-yl)-1-[6-(2-methoxy-ethoxy)-2-methyl-pyridin-3-yl]-3-methyl-1,3-dihydro-imidazo[4,5-c]quinolin-2-one] | 1950 | –
CCNc1cc(-c2ccc3ncc4c(c3c2)n(-c2ccc(OC)nc2C)c(=O)n4C)cnc1C [Example 11.7, 8-(5-Ethylamino-6-methyl-pyridin-3-yl)-1-(6-methoxy-2-methyl-pyridin-3-yl)-3-methyl-1,3-dihydro-imidazo[4,5-c]quinolin-2-one] | 6 | –
Cc1ccc(-n2c(=O)n(C)c3cnc4ccc(-c5cnc(N(C)C)nc5)cc4c32)c(C)n1 [Example 14.3, 8-(2-Dimethylamino-pyrimidin-5-yl)-1-(2,6-dimethyl-pyridin-3-yl)-3-methyl-1,3-dihydro-imidazo[4,5-c]quinolin-2-one] | 396 | –
COCC(=O)Nc1ccc(-n2c(=O)n(C)c3cnc4ccc(-c5cncc(N)c5)cc4c32)c(C)n1 [Example 20.1, N-{5-[8-(5-Amino-pyridin-3-yl)-3-methyl-2-oxo-2,3-dihydro-imidazo[4,5-c]quinolin-1-yl]-6-methyl-pyridin-2-yl}-2-methoxy-acetamide] | 38 | –
CNc1ncc(-c2ccc3ncc4c(c3c2)n(-c2ccc(C)nc2C)c(=O)n4C)cn1 [Example 14.4, 1-(2,6-Dimethyl-pyridin-3-yl)-3-methyl-8-(2-methylamino-pyrimidin-5-yl)-1,3-dihydro-imidazo[4,5-c]quinolin-2-one] | 282 | –
CNc1ncc(-c2ccc3ncc4c(c3c2)n(-c2ccc(F)nc2C)c(=O)n4C)cc1F [Example 7.12, 8-(5-Fluoro-6-methylamino-pyridin-3-yl)-1-(6-fluoro-2-methyl-pyridin-3-yl)-3-methyl-1,3-dihydro-imidazo[4,5-c]quinolin-2-one] | 265 | –
